Assay results from patent US20100166804A1, “METHODS” (priority 2007, published 2010).

Columns and labels:
[1] = system: patients with a history of peanut allergy; experiment: Double-blind randomized oral food challenge with peanut flour (Example 1); format: in vivo; conditions: 1 mg ketotifen orally twice daily vs placebo; oral food challenge at two, four and six weeks
Protocol: (§1) To analyze hypersensitivity to an allergen, e.g., peanut, a double-blind, randomized, dose-ranging study is carried out with patients with a history of peanut allergy manifested by urticaria, angioedema, respiratory tract symptoms or hypotension generally using the methods described in Israel et al., Am. J. Respir. Crit. Care Med., (2000) 164:75-80. Eligible patients include those with serum total IgE level of 30-1000 IU/mL and/or a positive skin-prick test to peanut. Patients must have asthma condition under control with a forced expiratory volume in one second that is at least 80 percent of the predicted value. Patients may not have taken systemic corticosteroids, beta-blockers, acetylcholinesterase, aspirin, antihistamines and anti-depressants prior to and throughout the study.
Before enrollment, threshold level for reactivity to peanut allergen is confirmed by a screening double-blind, placebo-controlled oral food challenge. […] Vital signs are checked, chest auscultation is performed, and peak expiratory flow rates are monitored every 30 minutes during the food challenge and for at least 2 hours after the last dose or the abatement of any symptoms or signs. […]
(§2) Peak expiratory flow rates are monitored every 30 minutes during food challenge for at least 2 hours after the last does or abatement of any symptoms or signs. […]

[2] = system: patients with a history of peanut allergy; experiment: Double-blind randomized dose-ranging oral food challenge with peanut flour (Example 3); format: in vivo; conditions: 0.5, 1 or 2 mg ketotifen orally twice daily vs placebo; oral food challenge at two, four and six weeks
Protocol: as §1, with “to” for “to an allergen, e.g.,”, “take” for “have taken”, “during” for “prior to and throughout”
Before enrollment, threshold level for reactivity to peanut allergen is confirmed by a screening double-blind, placebo-controlled oral food challenge. Base line spirometry, peak expiratory flow rates and continuous cardiac monitoring is established. Vital signs are checked, chest auscultation is performed, and peak expiratory flow rates are monitored every 30 minutes during the food challenge and for at least 2 hours after the last dose or the abatement of any symptoms or signs. […]
as §2

[3] = system: patients with a history of bee sting allergy; experiment: Double-blind randomized dose-ranging bee venom challenge (Example 4); format: in vivo; conditions: 0.5, 1 or 2 mg ketotifen orally twice daily vs placebo; bee venom challenge at two, four and six weeks
Protocol: as §1, with “bee venom,” for “an allergen, e.g., peanut,”, “bee sting” for “peanut”, “bee venom.” for “peanut.”, “take” for “have taken”, “during” for “prior to and throughout”
Before enrollment, threshold level for reactivity to bee venom allergen is confirmed by a screening double-blind, placebo-controlled bee venom challenge. […] Vital signs are checked, chest auscultation is performed, and peak expiratory flow rates are monitored and bee venom specific IgE level and basal tryptase level are measured every 30 minutes during the challenge and for at least 2 hours after the last dose or the abatement of any symptoms or signs. […] The wheal size is evaluated 15 min after application. […] Patients are closely monitored for any systemic reaction. […]

[4] = system: subjects with an allergy to peanut; experiment: Oral peanut tolerization therapy with concomitant ketotifen fumarate, randomized double-blind placebo-controlled (Example 5); format: in vivo, patients
Protocol: A study is performed to evaluate the dose-related effects of ketotifen fumarate on the scope and severity of allergic signs and symptoms resulting from concomitant oral peanut tolerization therapy. The study also evaluates the effects of discontinuation of ketotifen therapy on the scope and severity of allergic signs and symptoms resulting from concomitant oral peanut tolerization therapy after 12 or 16 weeks, while oral peanut tolerization therapy is continued. The study also evaluates the effects of ketotifen therapy on the scope and severity of allergic signs and symptoms resulting from concomitant oral peanut tolerization therapy when ketotifen dosing is initiated after 12 weeks of oral peanut tolerization therapy. The study generally consists of screening, baseline, treatment, and post-treatment follow-up periods, and is randomized, double-blind, placebo-controlled, and in parallel groups.
Patients selected are generally healthy subjects between the ages of 2 and 50 with an allergy to peanut which provokes signs and symptoms of an anaphylactic reaction. The patients may also have co-morbid atopic dermatitis and/or allergic rhinitis. If a patient is selected for the study, they are randomly assigned a treatment of 0.5 mg oral ketotifen fumarate, 2.0 mg oral ketotifen fumarate, or placebo (n=12 for each group).
During the treatment period, patients receive ketotifen fumarate or placebo for one week prior to tolerization therapy. At week 1, oral peanut tolerization therapy is begun with peanut flour, and safety evaluations are performed. The oral dose of peanut flour is increased at weeks 3, 5, 7, 9, 11 and 13, and safety evaluations are performed at that time.
At week 13, half of the patients in each of the ketotifen groups are switched in a double-blind fashion to placebo, and subjects in the placebo treatment group are switched in a double-blind fashion to receive 2.0 mg oral ketotifen. Patients continue in the study for an additional 4 weeks. At weeks 15 and 17, the peanut flour dose is increased, and safety evaluations are performed. […]

[5] = patients initially receiving ketotifen, switched to placebo at week 13, final 4 weeks

For `CN1CCC(=C2c3ccccc3CC(=O)c3sccc32)CC1` [ketotifen], the “patients' threshold sensitivity to peanut upon oral ingestion (change from base line in log-transformed threshold dose of peanut flour that induced hypersensitivity)” value [1] was “significantly increase”, the “patients' tolerance to peanut upon oral ingestion (change from base line in log-transformed threshold dose of peanut flour that induced hypersensitivity)” value [2] was “significantly increase” and the “patients' tolerance to bee venom (change from base line in log-transformed threshold dose of bee venom that induced hypersensitivity)” value [3] was “significantly increase”. For the same compound, the “amount of peanut flour that is well-tolerated” value ([4]; 0.5 mg or 2.0 mg oral ketotifen fumarate vs placebo during oral peanut tolerization therapy) was “tolerate more peanut flour than patients in the placebo group”, the “escape therapy required, vs patients continuously receiving ketotifen” value [4, 5] was “require similar escape therapy” and the “escape therapy required, vs patients continuously receiving the placebo” value [4, 5] was “require less escape therapy”.
